According to patent publication US20210338767A1, “METHODS OF SELECTING TREATMENT FOR CXCR4-ASSOCIATED CANCER” (BioLineRx Ltd., priority 2018, published 2021):
Positions of bridges follow the written chain, without caps; N, C: chain ends. Non-standard residues stand in square brackets, D forms with d. *: point of attachment. Benzoyl(4-F) = O=C(c1ccc(F)cc1)*; Cit = NC(=O)NCCC[C@H](N)C(=O)O

Assays:
[1] = target: T1, CXCR4 receptor (Homo sapiens, UniProt P61073); assay: Pharmacodynamic assessment: CXCR4 receptor occupancy prior and post BL-8040 treatment; assay type: in vivo
T1 construct: Fold change in level of occupied CXCR4 receptor prior and post treatment with low (0.5, 0.75 and 1 mg/kg) and high; endogenous in cells
T1 sequence (P61073 whole entry): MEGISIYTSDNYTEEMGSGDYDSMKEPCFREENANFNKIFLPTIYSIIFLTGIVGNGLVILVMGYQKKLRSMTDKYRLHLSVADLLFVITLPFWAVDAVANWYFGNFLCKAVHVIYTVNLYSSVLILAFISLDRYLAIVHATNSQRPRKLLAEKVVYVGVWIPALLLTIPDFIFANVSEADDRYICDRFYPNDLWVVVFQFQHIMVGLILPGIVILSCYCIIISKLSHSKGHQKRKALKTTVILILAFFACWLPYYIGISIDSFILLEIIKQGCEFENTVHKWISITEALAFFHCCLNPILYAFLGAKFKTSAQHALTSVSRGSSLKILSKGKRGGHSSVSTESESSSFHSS
Description: (§1) FIGS. 3A-D show BL-8040 Mediated CXCR4 Receptor Occupancy and Induce Mobilization and Differentiation of AML Blasts. (A) Fold change in level of occupied CXCR4 receptor prior and post treatment with low (0.5, 0.75 and 1 mg/kg) and high (1.25, 1.5 and 2 mg/kg) BL-8040 dose levels. (B) Fold change in AML blast counts pre and post BL-8040 and BL-8040+HiDAC treatments in responders and non-responders. (C) Fold change in the level of AML blasts in the BM following BL-8040 treatment (D) Change in levels of BM Granulocytes following 2 days of BL-8040 treatment.
Receptor occupancy is typically assessed using two monoclonal antibodies (mAbs) binding to two different epitopes of the CXCR4 antigen. […] It will be appreciated that receptor occupancy can also be determined by using an antibody which binds peptide-free CXCR4 prior to and post contacting with the peptide (e.g., 12G5, supra).
According to a specific embodiment, the receptor occupancy is determined as follows: Percent or number of CXCR4 expressing cells (e.g., using 12G5 Ab) post drug (e.g., SEQ ID NO: 1) treatment out of percent or number of CXCR4 expressing cells (e.g., using 12G5 Ab) prior to drug (e.g., SEQ ID NO: 1) treatment *100, such a calculation provides receptor occupancy per cell.

[2] = system: malignant cells of hematopoietic origin including AML; details: cited from earlier work
[3] = system: AML blasts; assay: Pharmacodynamic assessment: mobilization and differentiation of AML blasts (peripheral blood, bone marrow); assay type: in vivo, human
Description: as §1

[4] = system: relapsed or refractory AML; assay: Phase 2a study of BL-8040 combined with high dose Ara-C (HiDAC) in relapsed/refractory AML: efficacy; assay type: in vivo, human
Description: Subjects were accrued in a conventional 3+3 design.
Follow-up period started after completion of Ara-C chemotherapy and continued for up to 6 weeks after initiation of salvage chemotherapy with Ara-C, i.e., up to Day 44. Subjects participating in the expansion phase were followed for up to 5 years after completion of the follow-up period. Subjects were contacted by telephone at approximately 3-month intervals (±1 month) after the end of the follow-up period to determine AML status and survival.

[5] = responding patients following BL-8040 treatment vs baseline, compared to non-responders
[6] = all patients at all BL-8040 dose levels (N=42)
[7] = responding subjects at the 1.5 mg/kg dose (9/23 with CR/CRi)
[8] = responding subjects within the 1.5 mg/kg dose group
[9] = subjects receiving 1.5 mg/kg (N=23)

Question: With “4F-benzoyl-Arg-Arg-Nal-Cys-Tyr-Cit-Lys-DLys-Pro-Tyr-Arg-Cit-Cys-Arg-NH2 ({Benzoyl(4-F)}-RR[Nal]CY[Cit]K[dK]PYR[Cit]CR-NH2; disulfide 4-13 (inferred)) [BL-8040]” as the substance, how does the CXCR4 receptor occupancy ([1]; high BL-8040 dose levels (1.25, 1.5 and 2 mg/kg)) read?
Answer: demonstrated CXCR4 receptor occupancy

Question: What about the CXCR4 receptor occupancy ([1]; low BL-8040 dose levels (0.5, 0.75 and 1 mg/kg)) of the same substance?
Answer: insignificant changes in receptor occupancy

Question: What about the “cytotoxicity toward malignant cells” value [2] of the same substance?
Answer: CXCR4-dependent preferential cytotoxicity

Question: What about the “levels of granulocytes in BM” value ([3]; responders vs non-responders relative to screening, following BL-8040 treatment) of the same substance?
Answer: Statistically significant increased levels of granulocytes

Question: And the “leukemic blasts in BM” value [3, 5]?
Answer: decreased numbers of leukemic blasts in BM

Question: And the “mobilized leukemic blasts in peripheral blood” value [3, 5]?
Answer: statistically significant increased numbers of mobilized leukemic blasts

Question: What about the 1-year survival rate [4, 6] of the same substance?
Answer: 37.2%

Question: And the 2-years survival rate [4, 6]?
Answer: 20%

Question: And the 3-years survival rate [4, 6]?
Answer: 16%

Question: And the “median overall survival (mOS)” value ([4]; all patients at all BL-8040 dose levels (N=42), with HiDAC)?
Answer: 9.1 months

Question: What about the “composite CR rate (CR and CRi)” value ([4]; expansion group that received 1.5 mg/kg BL-8040 (9/23), with HiDAC) of the same substance?
Answer: 39%

Question: What about the “composite CR rate (CR and CRi)” value ([4]; refractory patients (9/19), with HiDAC) of the same substance?
Answer: 47%

Question: And the “composite CR rate (CR and CRi)” value ([4]; relapsed patients (3/23), with HiDAC)?
Answer: 13%

Question: What about the 1-year survival rate [4, 7] of the same substance?
Answer: 66.7%

Question: What about the 2-years survival rate [4, 7] of the same substance?
Answer: 44.4%

Question: And the 3-years survival rate [4, 7]?
Answer: 44.4%

Question: What about the “median overall survival (mOS)” value [4, 7] of the same substance?
Answer: 21.8 months

Question: What about the “EFS at 1 year” value [4, 8] of the same substance?
Answer: 55.6%

Question: And the “EFS at 2 years” value [4, 8]?
Answer: 22.2%

Question: And the “EFS at 3 years” value [4, 8]?
Answer: 22.2%

Question: What about the “median duration of response (mDOR)” value [4, 8] of the same substance?
Answer: 17.4 months

Question: What about the 1-year survival rate [4, 9] of the same substance?
Answer: 38.1%

Question: What about the 2-year survival rate [4, 9] of the same substance?
Answer: 23.8%

Question: What about the 3-year survival rate [4, 9] of the same substance?
Answer: 23.8%

Question: And the “median overall survival (mOS)” value [4, 9]?
Answer: 10.7 months
